Reference: US9221790B2, “Benzamide derivatives” (Dong-A Pharm. Co., Ltd., priority 2010, dated 2015)
Read-outs that look alike come from different tables or passages of the source.

Columns and labels:
human 5-HT4 receptor = human 5-HT4 receptor (Homo sapiens (Human), UniProt Q13639); test: Binding affinity of compounds for 5-HT4 receptor ([H3]-GR113808 radioligand, COS-7 membrane homogenates)
Procedure: The binding affinity of the compounds for a human 5-HT4 receptor was assayed according to the method as disclosed in the literature [Wyngaert et al., Journal of Neurochemistry, (1997) 69, 1810-1819]. For this purpose, COS-7 cells expressing the human 5-HT4 receptor were constructed and homogenized to obtain membrane homogenates which were then used in binding assay experiments. For the binding assay, the membrane homogenates were respectively mixed and incubated with different concentrations of test materials and [H3]-GR113808 (Amersham Biosciences). The concentrations of the individual test materials were set to 4 μM, 1 μM, 0.25 μM, and 0.0625 μM, respectively, and the concentration of [H3]-GR113808 was set to 0.595 nM. After the incubation was completed, the reaction products were collected in GF/B glass fiber filters using a Packard cell harvester, and the bound radioactivity was then determined using a liquid cell scintillation counter (Packard TopCount NXT™, Perkin Elmer). Specific binding of the radioligand to the 5-HT4 receptor was calculated by subtracting the non-specific binding of the radioligand from the total radioligand binding. IC50 was calculated from % inhibition of specific binding of the radioligand to the 5-HT4 receptor, with respect to varying concentrations of the test materials.

SD rats = test: Evaluation of gastric emptying; type: in vivo, rat; conditions: 5 mg/kg oral, semi-solid diet 1 hour after dosing, stomach extracted 50 minutes after meal
Procedure: Evaluation of gastric emptying was carried out based on the method described in Iwanaga Y, et al., Jpn J Pharmacol. 1991, 56(3), 261-269. As experimental animals, SD rats (240 to 250 g) were used and divided into groups (n=5 to 6). On the day prior to the experiment, animals were fasted for 18 hours. Test materials were formulated as suspensions thereof in 0.5% (w/v) methylcellulose and were orally administered to the animals at a dose of 5 mg/kg. 1 hour after the oral administration of the test materials, 2 mL of a semi-solid diet was orally administered to the animals. The semi-solid diet was in the form of porridge formulated by pulverizing a standard solid diet together with distilled water in a mixer. 50 minutes after the administration of the semi-solid diet, the animals were sacrificed by cervical dislocation. After carrying out an abdominal incision, the stomach was extracted from the animals. The weight of diet remaining in the stomach was measured to thereby determine the gastric emptying rate (%). The gastric emptying rate was calculated according to the following equation.
Gastric Emptying Rate (%)=(1−X/Y)*100
X: Weight of diet remaining in the stomach extracted 50 minutes after administration of meal
Y: Weight of diet remaining in the stomach extracted immediately after administration of meal

hERG potassium channel = hERG potassium channel (Homo sapiens (Human), UniProt Q12809); test: Binding affinity for hERG potassium channel ([H3]-Astemizole radioligand, HEK-293 membrane homogenates, MDS Pharma Service); conditions: probe [H3]-Astemizole (1.5 nM), 10 μM test material, 1.5 nM [H3]-Astemizole, hERG K+ channel, HEK-293 membranes
Chain of hERG potassium channel (Q12809 whole entry): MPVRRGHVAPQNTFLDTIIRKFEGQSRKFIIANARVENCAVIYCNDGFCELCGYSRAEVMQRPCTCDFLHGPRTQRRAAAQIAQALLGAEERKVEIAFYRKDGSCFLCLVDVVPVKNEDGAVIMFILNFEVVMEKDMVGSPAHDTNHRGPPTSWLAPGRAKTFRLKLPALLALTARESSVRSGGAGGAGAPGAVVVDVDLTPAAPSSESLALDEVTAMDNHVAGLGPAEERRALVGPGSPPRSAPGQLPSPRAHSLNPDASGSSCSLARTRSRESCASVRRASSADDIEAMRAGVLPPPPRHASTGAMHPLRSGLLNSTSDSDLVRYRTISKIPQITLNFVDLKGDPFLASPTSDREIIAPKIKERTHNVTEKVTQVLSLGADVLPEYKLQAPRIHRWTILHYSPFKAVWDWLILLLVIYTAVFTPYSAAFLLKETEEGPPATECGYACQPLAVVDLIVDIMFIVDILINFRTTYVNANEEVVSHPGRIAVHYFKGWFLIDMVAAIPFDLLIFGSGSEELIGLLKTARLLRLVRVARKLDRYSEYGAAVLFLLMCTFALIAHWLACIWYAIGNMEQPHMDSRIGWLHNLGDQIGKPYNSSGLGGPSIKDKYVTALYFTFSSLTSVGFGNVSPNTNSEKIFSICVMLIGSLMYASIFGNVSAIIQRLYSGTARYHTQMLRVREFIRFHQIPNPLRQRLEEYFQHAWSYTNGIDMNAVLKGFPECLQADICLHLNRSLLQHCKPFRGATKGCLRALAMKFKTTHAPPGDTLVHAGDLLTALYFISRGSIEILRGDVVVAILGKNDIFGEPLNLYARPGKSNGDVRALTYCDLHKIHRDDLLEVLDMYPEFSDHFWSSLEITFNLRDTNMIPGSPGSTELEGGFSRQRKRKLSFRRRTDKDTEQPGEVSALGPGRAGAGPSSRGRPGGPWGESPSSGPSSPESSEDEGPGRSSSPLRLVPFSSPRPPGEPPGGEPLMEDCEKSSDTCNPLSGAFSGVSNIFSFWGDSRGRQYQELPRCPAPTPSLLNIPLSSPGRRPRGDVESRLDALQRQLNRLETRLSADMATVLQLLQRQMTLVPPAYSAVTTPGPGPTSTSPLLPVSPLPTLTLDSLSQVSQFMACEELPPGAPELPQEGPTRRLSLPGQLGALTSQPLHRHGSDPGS
Procedure: The binding affinity of the compounds for the human ether-a-go-go-related gene (hERG) potassium (K+) channel which is associated with cardiac QT prolongation was assayed in MDS Pharma Service (Catalog No. 265900). Membrane homogenates were obtained from mammalian HEK-293 cells expressing the hERG potassium channel and then used in the binding assay experiment. For the binding assay experiment, the membrane homogenates were respectively mixed and incubated with 10 μM of test materials and 1.5 nM of [H3]-Astemizole (Perkin Elmer). After the incubation was completed, the radioactivity bound to the hERG K+ channel was counted. The affinity of each test material for the hERG K+ channel was calculated from % inhibition of specific binding of the radioligand to the hERG K+ channel, resulting from the action of the test material.

ICR mice = test: Acute oral toxicity of compounds in mice; type: in vivo; conditions: male ICR mice, single oral dose 1 g/10 mL/kg, 2 weeks observation
Procedure: 200 mg of each of Example compounds was triturated in 1% hydroxypropyl methyl-cellulose, and the resulting triturations were then orally administered to 5-week old male ICR mice (20 g±2 g, n=5) at a dose of 1 g/10 mL/kg. The minimum lethal dose (MLD, mg/kg) of the individual compounds was investigated by the observation of the mortality, body weight, clinical symptoms and the like of animals over the entire experimental period of 2 weeks.

[1] = inhibition of specific binding of 0.595 nM [H3]-GR113808 to human 5-HT4 receptor, COS-7 membranes, read-out: IC50

Chain of human 5-HT4 receptor (Q13639 whole entry): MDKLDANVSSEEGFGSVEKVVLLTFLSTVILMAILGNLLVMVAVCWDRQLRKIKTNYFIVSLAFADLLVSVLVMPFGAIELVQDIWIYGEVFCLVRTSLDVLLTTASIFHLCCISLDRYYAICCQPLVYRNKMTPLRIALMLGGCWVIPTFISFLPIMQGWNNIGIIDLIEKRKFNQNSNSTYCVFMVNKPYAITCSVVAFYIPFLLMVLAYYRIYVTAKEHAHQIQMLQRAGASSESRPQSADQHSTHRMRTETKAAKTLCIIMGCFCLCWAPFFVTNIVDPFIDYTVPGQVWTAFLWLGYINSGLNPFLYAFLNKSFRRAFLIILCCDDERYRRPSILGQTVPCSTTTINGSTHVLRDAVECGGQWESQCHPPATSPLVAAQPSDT

Structure (SMILES) | IC50 (human 5-HT4 receptor; [1]) [pM] | Gastric emptying rate (SD rats) [%] | inhibition at 10 μM (hERG potassium channel) [%] | Minimum lethal dose (MLD) (ICR mice) [mg/kg] | IC50 (human 5-HT4 receptor) [pM]
COc1cc(N)c(Cl)cc1C(=O)NCC1CCN(Cc2ccc(O)cc2)CC1 [Example 14, N-((1-(4-hydroxybenzyl)piperidin-4-yl)methyl)-4-amino-5-chloro-2-methoxybenzamide] | 375 | 42.1 | 40 | >1000 | –
COc1cc(N)c(Cl)cc1C(=O)NCC1CCN(CCCn2ccnc2C)CC1 [Example 4, N-((1-(3-(2-methylimidazol-1-yl)propyl)piperidin-4-yl)methyl)-4-amino-5-chloro-2-methoxybenzamide] | 229 | 46.4 | 14 | >1000 | –
COc1cc(N)c(Cl)cc1C(=O)NCC1CCN(CCCn2cncn2)CC1 [Example 1, N-((1-(3-(1,2,4-triazol-1-yl)propyl)piperidin-4-yl)methyl)-4-amino-5-chloro-2-methoxybenzamide] | 226 | 43.0 | 1 | >1000 | –
COc1cc(N)c(Cl)cc1C(=O)NCC1CCN(CCCCCn2ccc3ccccc32)CC1 [Example 5, N-((1-(5-(indol-1-yl)pentyl)piperidin-4-yl)methyl)-4-amino-5-chloro-2-methoxybenzamide] | 5 | 52.0 | – | >1000 | –
COc1cc(N)c(Cl)cc1C(=O)NCC1CCN(Cc2cccnc2)CC1 [Example 9, N-((1-(pyridin-3-ylmethyl)piperidin-4-yl)methyl)-4-amino-5-chloro-2-methoxybenzamide] | 267 | 51.2 | 6 | >1000 | –
COc1cc(N)c(Cl)cc1C(=O)NCC1CCN(CCCn2cnnn2)CC1 [Example 2, N-((1-(3-(tetrazol-1-yl)propyl)piperidin-4-yl)methyl)-4-amino-5-chloro-2-methoxybenzamide] | 164 | 52.8 | 4 | >1000 | –
COc1cc(N)c(Cl)cc1C(=O)NCC1CCN(Cc2cn(C)c3ccccc23)CC1 [Example 10, N-((1-((1-methylindol-3-yl)methyl)piperidin-4-yl)methyl)-4-amino-5-chloro-2-methoxybenzamide] | 76 | 59.1 | – | >1000 | –
COc1cc(N)c(Cl)cc1C(=O)NCC1CCN(CCCn2ccc3ccccc32)CC1 [Example 3, N-((1-(3-(indol-1-yl)propyl)piperidin-4-yl)methyl)-4-amino-5-chloro-2-methoxybenzamide] | 39 | 45.2 | – | >1000 | –
COc1cc(N)c(Cl)cc1C(=O)NCC1CCN(CCCn2ccnn2)CC1 [Example 7, N-((1-(3-(1,2,3-triazol-1-yl)propyl)piperidin-4-yl)methyl)-4-amino-5-chloro-2-methoxybenzamide] | 67 | 56.1 | 7 | >1000 | –
COc1cc(N)c(Cl)cc1C(=O)NCC1CCN(CCCn2nccn2)CC1 [Example 8, N-((1-(3-(1,2,3-triazol-2-yl)propyl)piperidin-4-yl)methyl)-4-amino-5-chloro-2-methoxybenzamide] | 182 | 49.1 | 15 | >1000 | –
COc1cc(N)c(Cl)cc1C(=O)NCC1CCN(Cc2cccn2C)CC1 [Example 12, N-((1-((1-methylpyrrol-2-yl)methyl)piperidin-4-yl)methyl)-4-amino-5-chloro-2-methoxybenzamide] | 421 | 62.0 | 32 | >1000 | –
COc1cc(N)c(Cl)cc1C(=O)NCC1CCN(CCc2c[nH]c3ccccc23)CC1 [Example 15, N-((1-(2-(indol-3-yl)ethyl)piperidin-4-yl)methyl)-4-amino-5-chloro-2-methoxybenzamide] | – | 41.3 | – | >1000 | 2
COc1cc(N)c(Cl)cc1C(=O)NCC1CCN(Cc2ccc(F)cc2)CC1 [Example 13, N-((1-(4-fluorobenzyl)piperidin-4-yl)methyl)-4-amino-5-chloro-2-methoxybenzamide] | 134 | 52.3 | 52 | >1000 | –
COc1cc(N)c(Cl)cc1C(=O)NCC1CCN(Cc2ncc[nH]2)CC1 [Example 11, N-((1-(imidazol-2-ylmethyl)piperidin-4-yl)methyl)-4-amino-5-chloro-2-methoxybenzamide] | 454 | 43.1 | 21 | >1000 | –
COc1cc(N)c(Cl)cc1C(=O)NCC1CCN(CCCCCn2ccnn2)CC1 [Example 6, N-((1-(5-(1,2,3-triazol-1-yl)pentyl)piperidin-4-yl)methyl)-4-amino-5-chloro-2-methoxybenzamide] | 103 | 46.0 | 8 | >1000 | –
